Data reported in patent US8202865B2, “Oxadiazole derivatives” (Merck Serono SA, priority 2007, dated 2012).
Structures can show the parent of a compound that is named as a salt.

Experiments:
S1P1 [1] = target: T1, S1P1 (Homo sapiens, UniProt P21453); experiment: Receptor binding assay, [33P]sphingosine 1-phosphate, membranes, WGA SPA beads; conditions: membranes from CHO cells expressing S1P1; 25 pM [33P]S1P; 60 min RT
T1 construct: expressed in transfected cells; host or cells: CHO cells (membranes)
Method: (§1) Receptor binding assay: Membranes were prepared from CHO cells expressing S1P1 or S1P3 for use in ligand and […] binding studies. Cells were suspended in 50 mM TRIS, pH 7.4, 2 mM EDTA, 250 mM Sucrose (buffer A) and 1× Complete protease inhibitor cocktail (Roche), and disrupted at 4° C. by N2 decompression using a cell disruption bomb (Parr Instrument). Following centrifugation at 1000 RPM for 10 min at 4° C., the supernatant was suspended in buffer A and centrifuged again at 19000 RPM for 60 min at 4° C. The pellet was then suspended in 10 mM HEPES, pH 7.4, 1 mM EDTA, 250 mM Sucrose (Buffer B), and 1× Complete EDTA-free protease inhibitor cocktail and homogenized using a potter. Membranes were flash frozen in liquid N2 and stored at −80° C. [33P]sphingosine 1-phosphate (3000 Ci/mmol; American Radiolabeled Chemicals, Inc.) was added to test compounds in DMSO. Membranes and WGA SPA beads (GE Healthcare) were added to give a final volume of 100 μl in 96-well plates with assay concentrations of 25 pM or 10 pM [33P]sphingosine 1-phosphate (respectively for S1P1 or S1P3), 50 mM HEPES, pH 7.5, 5 mM MgCl2, 100 mM NaCl, 0.4% fatty acid-free BSA, 1-5 μg/well of proteins and 100 μg/well of WGA SPA beads. Binding was performed for 60 min at RT on a shaker and bound radioactivity was measured on a PerkinElmer 1450 MicroBeta counter. Specific binding was calculated by subtracting remaining radioactivity in the presence of 1000-fold excess of unlabeled S1P. Binding data were analyzed using the GraphPad Prism program.

S1P1 [2] = target: T1, S1P1; experiment: 35S-GTPγS binding, S1P1 membranes; format: biochemical; conditions: membranes from CHO cells expressing S1P1; 60 min 30° C.
Outline: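 CHO-cell membranes expressing S1P1 or S1P3 (1-10 μg) incubated with compounds in 20 mM HEPES pH 7.4, 10 mM MgCl2, 140 mM NaCl, saponin, 0.2% BSA, 1.7 μM GDP and [35S]-GTPγS (20 μl of 1.5 nM added), 60 min at 30° C. Bound radioactivity expressed as % of S1P activation.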

S1P3 = target: T2, S1P3 (Homo sapiens, UniProt Q99500); experiment: 35S-GTPγS binding, S1P3 membranes; format: biochemical; conditions: membranes from CHO cells expressing S1P3; 60 min 30° C.
T2 construct: expressed in transfected cells; host or cells: CHO cells (membranes)
Method: as §1
Measurements of ^35S-GTPγS Binding: Membranes (1 to 10 μg protein) prepared as described above, were incubated in 96-well Scintiplates (PerkinElmer) with test compounds diluted in DMSO, in 180 μl of 20 mM HEPES, pH 7.4, 10 mM MgCl2, 2 μg/well Saponin, 0.2% fatty acid free BSA (Assay buffer), 140 mM NaCl and 1.7 μM GDP. The assay was initiated with the addition of 20 μl of 1.5 nM [35S]-GTPγS (1100 Ci/mmol; GE Healthcare) in assay buffer. After 60 min incubation at 30° C. on a shaker, plates were centrifuged for 10 min at 2000 RPM. Supernatant was discarded and membrane bound radioactivity was measured on a PerkinElmer 1450 MicroBeta counter. Triplicate samples were averaged and expressed as % response relative to S1P activation in absence of compound (n=2).

T1 sequence (P21453 whole entry, species assumed): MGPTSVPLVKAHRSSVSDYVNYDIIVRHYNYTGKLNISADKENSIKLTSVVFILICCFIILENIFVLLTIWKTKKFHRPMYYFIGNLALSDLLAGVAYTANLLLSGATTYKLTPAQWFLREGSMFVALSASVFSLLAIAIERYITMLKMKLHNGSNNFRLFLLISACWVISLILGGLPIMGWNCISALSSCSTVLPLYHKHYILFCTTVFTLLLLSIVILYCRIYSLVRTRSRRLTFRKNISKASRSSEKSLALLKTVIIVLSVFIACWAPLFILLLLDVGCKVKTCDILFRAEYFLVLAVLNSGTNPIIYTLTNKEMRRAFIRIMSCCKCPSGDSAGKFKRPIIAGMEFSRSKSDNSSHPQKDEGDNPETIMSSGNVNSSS
T2 sequence (Q99500 whole entry, species assumed): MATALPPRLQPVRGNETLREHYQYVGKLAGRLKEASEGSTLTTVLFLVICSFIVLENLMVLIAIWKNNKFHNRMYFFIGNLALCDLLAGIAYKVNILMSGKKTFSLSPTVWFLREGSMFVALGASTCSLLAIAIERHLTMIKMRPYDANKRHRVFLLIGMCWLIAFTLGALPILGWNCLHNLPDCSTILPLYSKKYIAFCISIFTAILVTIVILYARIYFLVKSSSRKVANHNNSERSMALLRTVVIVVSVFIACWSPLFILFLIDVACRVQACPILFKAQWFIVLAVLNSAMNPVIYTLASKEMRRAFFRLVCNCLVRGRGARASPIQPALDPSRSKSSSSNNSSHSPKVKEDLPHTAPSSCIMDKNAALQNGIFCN

SMILES | Ki (S1P1 [1]) | EC50 (S1P1 [2]) | EC50 (S1P3)
O=C(O)c1ccc(-c2noc(-c3ccc(-c4ccccc4C(F)(F)F)cc3)n2)cc1F [Example 1, 2-fluoro-4-{5-[2′-(trifluoromethyl)biphenyl-4-yl]-1,2,4-oxadiazol-3-yl}benzoic acid] | 2470 nM |  | 
O=C(O)c1ccc(-c2noc(-c3ccc(-c4ccccc4Cl)cc3)n2)cc1F [Example 2, 4-[5-(2′-chlorobiphenyl-4-yl)-1,2,4-oxadiazol-3-yl]-2-fluorobenzoic acid] | 1500 nM | 4720 nM | > 30000 nM
Cc1cccc(C)c1-c1ccc(-c2nc(-c3ccc(C(=O)O)c(F)c3)no2)cc1 [Example 3, 4-[5-(2′,6′-dimethylbiphenyl-4-yl)-1,2,4-oxadiazol-3-yl]-2-fluorobenzoic acid] | 2600 nM |  | 
Cc1ccccc1-c1ccc(-c2nc(-c3ccc(C(=O)O)c(F)c3)no2)cc1C [Example 4, 4-[5-(2,2′-dimethylbiphenyl-4-yl)-1,2,4-oxadiazol-3-yl]-2-fluorobenzoic acid] | 126 nM | 317 nM | > 30000 nM
COc1ccccc1-c1ccc(-c2nc(-c3ccc(C(=O)O)c(F)c3)no2)cc1C [Example 7, 2-fluoro-4-[5-(2′-methoxy-2-methylbiphenyl-4-yl)-1,2,4-oxadiazol-3-yl]benzoic acid] |  | 924 nM | > 30000 nM
Cc1cc(-c2nc(-c3ccc(C(=O)O)c(F)c3)no2)ccc1-c1cscc1C [Example 9, 2-fluoro-4-{5-[3-methyl-4-(4-methyl-3-thienyl)phenyl}-1,2,4-oxadiazol-3-yl]benzoic acid] | 40 nM | 136 nM | > 30000 nM
Cc1ccccc1-c1ccc(-c2nc(-c3ccc(C(=O)O)cc3F)no2)cc1C [Example 10, 4-[5-(2,2′-dimethylbiphenyl-4-yl)-1,2,4-oxadiazol-3-yl]-3-fluorobenzoic acid] | 330 nM | 3510 nM | > 30000 nM
Cc1ccccc1-c1ccc(-c2nc(-c3ccc(C(=O)O)c(F)c3)no2)cc1[N+](=O)[O-] [Example 11, 2-fluoro-4-[5-(2′-methyl-2-nitrobiphenyl-4-yl)-1,2,4-oxadiazol-3-yl]benzoic acid] |  | 645 nM | > 30000 nM
CC1CCCCN1c1ccc(-c2nc(-c3ccc(C(=O)O)c(F)c3)no2)cc1[N+](=O)[O-] (stereo not shown) [Example 15, 2-fluoro-4-{5-[4-(2-methylpiperidin-1-yl)-3-nitrophenyl]-1,2,4-oxadiazol-3-yl}benzoic acid] |  | 1220 nM | > 30000 nM
CC(C)COc1ncc(-c2nc(-c3ccc(C(=O)O)c(F)c3)no2)cc1Cl [Example 34, 4-[5-(5-chloro-6-isobutoxypyridin-3-yl)-1,2,4-oxadiazol-3-yl]-2-fluorobenzoic acid] | 2930 nM | 4990 nM | 
COCc1cc(-c2nc(-c3ccc(C(=O)O)c(F)c3)no2)ccc1-c1ccccc1C [Example 35, 2-fluoro-4-{5-[2-(methoxymethyl)-2′-methylbiphenyl-4-yl]-1,2,4-oxadiazol-3-yl}benzoic acid] | 10 nM | 30 nM | 
CC(C)Oc1ncc(-c2nc(-c3ccc(C(=O)O)c(F)c3)no2)cc1Cl [Example 36, 4-[5-(5-chloro-6-isopropoxypyridin-3-yl)-1,2,4-oxadiazol-3-yl]-2-fluorobenzoic acid] | 530 nM |  | 
CC1CCCCN1c1ccc(-c2nc(-c3ccc(S(N)(=O)=O)cc3)no2)cc1NS(C)(=O)=O (stereo not shown) [Example 37, 4-(5-{4-(2-methylpiperidin-1-yl)-3-[(methylsulfonyl)amino]phenyl}-1,2,4-oxadiazol-3-yl)benzenesulfonamide] | 10 nM | 1.6 nM | 
CCC(C)Oc1ncc(-c2nc(-c3ccc(OCC(=O)O)c(F)c3)no2)cc1Cl (stereo not shown) [Example 50, {4-[5-(6-sec-butoxy-5-chloropyridin-3-yl)-1,2,4-oxadiazol-3-yl]-2-fluorophenoxy}acetic acid] | 50 nM | 261 nM | 
CC(C)Oc1ncc(-c2nc(-c3ccc(OCC(=O)O)c(F)c3)no2)cc1Cl [Example 53, {4-[5-(5-chloro-6-isopropoxypyridin-3-yl)-1,2,4-oxadiazol-3-yl]-2-fluorophenoxy}acetic acid] |  | 294 nM | > 20000 nM
Cc1ccccc1-c1ccc(-c2nc(-c3ccc(C(=O)NCC(=O)O)c(F)c3)no2)cc1C [Example 54, N-{4-[5-(2,2′-dimethylbiphenyl-4-yl)-1,2,4-oxadiazol-3-yl]-2-fluorobenzoyl}glycine] |  | 168 nM | 6430 nM
Cc1ccccc1-c1ccc(-c2nc(-c3ccc(C(=O)NCCC(=O)O)c(F)c3)no2)cc1C [Example 55, N-{4-[5-(2,2′-dimethylbiphenyl-4-yl)-1,2,4-oxadiazol-3-yl]-2-fluorobenzoyl}-beta-alanine] |  | 53 nM | 12600 nM
CC1CCCCN1c1ccc(-c2nc(-c3cccc(CN(C)CC(=O)O)c3)no2)cc1NS(C)(=O)=O (stereo not shown) [Example 57, N-methyl-N-[3-(5-{4-(2-methylpiperidin-1-yl)-3-[(methylsulfonyl)amino]phenyl}-1,2,4-oxadiazol-3-yl)benzyl]glycine, Hydrochloride salt] | 6 nM | 4 nM | 
COCc1ccccc1-c1ccc(-c2nc(-c3ccc(C(=O)O)c(F)c3)no2)cc1COC [Example 85, 4-{5-[2,2′-bis(methoxymethyl)biphenyl-4-yl]-1,2,4-oxadiazol-3-yl}-2-fluorobenzoic acid] |  | 556 nM | 2300 nM
COCc1cc(-c2nc(-c3ccc(C(=O)NCC(=O)OC)c(F)c3)no2)ccc1-c1ccccc1C [Example 122, Methyl N-(2-fluoro-4-{5-[2-(methoxymethyl)-2′-methylbiphenyl-4-yl]-1,2,4-oxadiazol-3-yl}benzoyl)glycinate] | 0.9 nM | 2.5 nM | 
COCc1cc(-c2nc(-c3ccc(F)c(CN(C)CC(=O)O)c3)no2)ccc1N1CCCCC1C (stereo not shown) [Example 152, N-(2-fluoro-5-{5-[3-(methoxymethyl)-4-(2-methylpiperidin-1-yl)phenyl]-1,2,4-oxadiazol-3-yl}benzyl)-N-methylglycine, Dihydrochloride salt] |  | 0.6 nM | 223 nM
COCc1cc(-c2nc(-c3cccc(OCC(=O)O)c3)no2)ccc1-c1ccccc1C [Example 167, (3-{5-[2-(methoxymethyl)-2′-methylbiphenyl-4-yl]-1,2,4-oxadiazol-3-yl}phenoxy)acetic acid] | 10 nM | 22.4 nM | 
COCc1cc(-c2nc(-c3ccc(OCCCC(=O)O)c(F)c3)no2)ccc1-c1ccccc1C [Example 168, 4-(2-fluoro-4-{5-[2-(methoxymethyl)-2′-methylbiphenyl-4-yl]-1,2,4-oxadiazol-3-yl}phenoxy)butanoic acid] |  | 7.8 nM | 219 nM
COCc1cc(-c2nc(-c3ccc(C(=O)NCCC#N)c(F)c3)no2)ccc1-c1ccccc1C [Example 173, N-(2-cyanoethyl)-2-fluoro-{5-[2-(methoxymethyl)-2′-methylbiphenyl-4-yl]-1,2,4-oxadiazol-3-yl}benzamide] | 2 nM | 6 nM | 
COCCN(C)Cc1cccc(-c2noc(-c3ccc(-c4ccccc4C)c(COC)c3)n2)c1 [Example 185, 2-methoxy-N-(3-{5-[2-(methoxymethyl)-2′-methylbiphenyl-4-yl]-1,2,4-oxadiazol-3-yl}benzyl)-N-methylethanamine, Hydrochloride salt] | 7 nM | 5 nM | 
COCc1cc(-c2nc(-c3cccc(CCO)c3)no2)ccc1-c1ccccc1C [Example 190, 2-(3-{5-[2-(methoxymethyl)-2′-methylbiphenyl-4-yl]-1,2,4-oxadiazol-3-yl}phenyl)ethanol] | 4.3 nM | 0.7 nM | 
COCc1cc(-c2nc(-c3ccc(CO)cc3)no2)ccc1-c1ccccc1C [Example 191, (4-{5-[2-(methoxymethyl)-2′-methylbiphenyl-4-yl]-1,2,4-oxadiazol-3-yl}phenyl)methanol] | 7 nM | 2.1 nM | 
